Where a name gives a salt, the structure may show the parent alone.
molecular target: T1, human GSK-3β (Homo sapiens (Human), UniProt P49841); assay: Activity on human GSK-3β, LANCE substrate phosphorylation assay; type: biochemical; conditions: 10 μM, in duplicate, first screening assay
Method: Activity on human GSK-3β was assessed using the following methods (according to Meijer et al., Chem. Biol., 2003-10:1255-1266).
In a first screening assay, compounds were tested in duplicate at a concentration of 10 μM.
Human recombinant enzyme GSK-3β was incubated for 90 minutes at 22° C. in the presence of compounds or vehicle in a reaction buffer containing ATP plus 100 nM unphosphorylated specific substrate peptide (Ulight-[…] K-amide). Substrate phosphorylation was measured by LANCE technology (PerkinElmer, Conn., USA).
In a second assay, the same compounds were assayed at five concentrations ranging from 100 μM to 10 nM with ten-fold dilutions in duplicate.
(§1) The IC50 values (concentration causing a half maximal inhibition of control specific activity), reported in table 4, were determined by non-linear regression analysis of the inhibition curves generated with mean replicate values using Hill equation curve fitting.

T1 sequence (P49841 whole entry): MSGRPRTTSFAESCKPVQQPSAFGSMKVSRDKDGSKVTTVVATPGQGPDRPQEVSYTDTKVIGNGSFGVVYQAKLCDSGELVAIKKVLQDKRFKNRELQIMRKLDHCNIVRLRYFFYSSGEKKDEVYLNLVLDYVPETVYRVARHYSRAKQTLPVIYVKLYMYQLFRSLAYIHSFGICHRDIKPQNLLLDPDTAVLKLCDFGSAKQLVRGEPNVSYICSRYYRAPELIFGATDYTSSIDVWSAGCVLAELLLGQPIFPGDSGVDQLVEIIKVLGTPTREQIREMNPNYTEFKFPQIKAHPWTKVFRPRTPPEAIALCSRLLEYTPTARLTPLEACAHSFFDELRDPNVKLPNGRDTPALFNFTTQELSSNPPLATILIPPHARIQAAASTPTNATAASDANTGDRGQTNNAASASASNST

`O=C(O)CN1CCC(CNC(=O)c2n[nH]c3cc(O)c(Br)cc23)CC1` [Compound 41, [4-({[(5-bromo-6-hydroxy-1H-indazol-3-yl)carbonyl]amino}methyl)piperidin-1-yl] acetic acid] was tested. Which inhibition at 10 µM did it give?
Its inhibition at 10 µM is 71%.

same assay, conditions: compounds 1 to 15, LANCE assay, five concentrations 100 μM to 10 nM

`COCCN1CCC(CNC(=O)c2n[nH]c3ccc(-c4cccnc4)cc23)CC1` [Compound 4, N-{[1-(2-methoxyethyl)piperidin-4-yl]methyl}-5-(pyridin-3-yl)-1H-indazole-3-carboxamide] was tested. Which IC50 did it give?
The IC50 was 30 nM.

`COCCN1CCC(CNC(=O)c2n[nH]c3ccc(-c4cnccc4OC)cc23)CC1` [Compound 5, N-{[1-(2-methoxyethyl)piperidin-4-yl]methyl}-5-(4-methoxypyridin-3-yl)-1H-indazole-3-carboxamide] was tested. Which IC50 did it give?
The IC50 was 50 nM.

With `COCCN1CCC(CNC(=O)c2n[nH]c3ccc(-c4ccccc4F)cc23)CC1` [Compound 6, 5-(2-fluorophenyl)-N-{[1-(2-methoxyethyl)piperidin-4-yl]methyl}-1H-indazole-3-carboxamide] as the compound, how does the IC50 read?
Its IC50 is 70 nM.

Which IC50 does the source give for `COCCN1CCC(CNC(=O)c2n[nH]c3ccc(-c4ccc(C)nc4)cc23)CC1` [Compound 7, N-{[1-(2-methoxyethyl)piperidin-4-yl]methyl}-5-(6-methylpyridin-3-yl)-1H-indazole-3-carboxamide] here?
Its IC50 is 60 nM.

`COCCN1CCC(CNC(=O)c2n[nH]c3ccc(-c4ccccc4)cc23)CC1` [Compound 9, N-{[1-(2-methoxyethyl)pipendin-4-yl]methyl}-5-phenyl-1H-indazole-3-carboxamide] was tested. Which IC50 did it give?
The IC50 was 200 nM.

Which IC50 does the source give for `COCCN1CCC(CNC(=O)c2n[nH]c3ccc(-c4cncc(OC)c4)cc23)CC1` [Compound 10, N-{[1-(2-methoxyethyl)piperidin-4-yl]methyl}-5-(5-methoxypyridin-3-yl)-1H-indazole-3-carboxamide] here?
Its IC50 is 30 nM.

With `COCCN1CCC(CNC(=O)c2n[nH]c3ccc(-c4ccc(O)cc4)cc23)CC1` [Compound 11, 5-(4-hydroxyphenyl)-N-{[1-(2-methoxyethyl)piperidin-4-yl]methyl}-1H-indazole-3-carboxamide] as the compound, how does the IC50 read?
Its IC50 is 890 nM.

With `COCCN1CCC(CNC(=O)c2n[nH]c3ccc(-c4ccc(OC)cc4)cc23)CC1` [Compound 12, N-{[1-(2-methoxyethyl)piperidin-4-yl]methyl}-5-(4-methoxyphenyl)-1H-indazole-3-carboxamide] as the compound, how does the IC50 read?
Its IC50 is 560 nM.

With `COCCN1CCC(CNC(=O)c2n[nH]c3ccc(-c4ccc(C)cc4)cc23)CC1` [Compound 13, N-{[1-(2-methoxyethyl)piperidin-4-yl]methyl}-5-(4-methylphenyl)-1H-indazole-3-carboxamide] as the compound, how does the IC50 read?
The IC50 was 560 nM.

With `COCCN1CCC(CNC(=O)c2n[nH]c3ccc(-c4cccnc4OC)cc23)CC1` [Compound 14, N-{[1-(2-methoxyethyl)piperidin-4-yl]methyl}-5-(2-methoxypyridin-3-yl)-1H-indazole-3-carboxamide] as the compound, how does the IC50 read?
Its IC50 is 1400 nM.

Which IC50 does the source give for `COCCN1CCC(CNC(=O)c2n[nH]c3ccc(-c4ccc(OC)nc4)cc23)CC1` [Compound 15, N-{[1-(2-methoxyethyl)piperidin-4-yl]methyl}-5-(6-methoxypyridin-3-yl)-1H-indazole-3-carboxamide] here?
Its IC50 is 50 nM.

molecular target: T1, human GSK-3β; assay: GSK-3β LanthaScreen TR-FRET Eu Kinase binding and displacement assay; conditions: compounds 16 to 41, LanthaScreen TR-FRET binding and displacement assay, five concentrations 100 μM to 10 nM
Method: In a second assay, the same compounds were assayed at five concentrations ranging from 100 μM to 10 nM with ten-fold dilutions in duplicate. Compounds 1 to 15 were tested using the same first assay, compounds 16 to 41 were tested in another assay based on the binding and displacement of AlexaFluor® 647 labeled, ATP-competitive Kinase inhibitor scaffold using LanthaScreen™ TR-FRET technology Eu Kinase assay packet according to manufacturer's instruction (Life Technologies, Italy).
as §1

Which IC50 does the source give for `COCCN1CCC(CNC(=O)c2n[nH]c3ccc(-c4ccccc4C)cc23)CC1` [Compound 16, N-{[1-(2-methoxyethyl)piperidin-4-yl]methyl}-5-(2-methylphenyl)-1H-indazole-3-carboxamide] here?
The IC50 was 580 nM.

Which IC50 does the source give for `CCOc1cc(F)c(F)cc1-c1ccc2[nH]nc(C(=O)NCC3CCN(CCOC)CC3)c2c1` [Compound 18, 5-(2-ethoxy-4,5-difluorophenyl)-N-{[1-(2-methoxyethyl)piperidin-4-yl]methyl}-1H-indazole-3-carboxamide] here?
The IC50 was 1060 nM.

Which IC50 does the source give for `COc1ccc2[nH]nc(C(=O)NCC3CCN(CCCC(=O)O)CC3)c2c1` [Compound 24, 4-[4-({[(5-methoxy-1H-indazol-3-yl)carbonyl]amino}methyl)piperidin-1-yl] butanoic acid] here?
Its IC50 is 1030 nM.

How did the IC50 turn out when `O=C(O)CN1CCC(CNC(=O)c2n[nH]c3ccc(-c4cncnc4)cc23)CC1` [Compound 25, {4-[({[5-(Pyrimidin-5-yl)-1H-indazol-3-yl]carbonyl}amino)methyl]piperidin-1-yl}acetic acid hydrate] was run?
The IC50 was 220 nM.

`O=C(NCC1CCNCC1)c1n[nH]c2ccc(Br)cc12` [Compound 25b, 5-Bromo-N-(piperidin-4-ylmethyl)-1H-indazole-3-carbox-amide hydrochloride] was tested. Which IC50 did it give?
The IC50 was 530 nM.

Which IC50 does the source give for `Cc1noc(C)c1-c1ccc2[nH]nc(C(=O)NCC3CCN(CC(=O)O)CC3)c2c1` [Compound 26, {4-[({[5-(3,5-Dimethylisoxazol-4-yl)-1H-indazol-3-yl]carbonyl}amino)methyl]piperidin-1-yl}acetic acid hydrate] here?
Its IC50 is 910 nM.

`O=C(O)CN1CCC(CNC(=O)c2n[nH]c3ccc(-c4cccc(Cl)c4Cl)cc23)CC1` [Compound 27, {4-[({[5-(2,3-dichlorophenyl)-1H-indazol-3-yl]carbonyl}amino)methyl]piperidin-1-yl}acetic acid hydrate] was tested. Which IC50 did it give?
The IC50 was 100 nM.

With `O=C(O)CN1CCC(CNC(=O)c2n[nH]c3ccc(-c4cccc(F)c4)cc23)CC1` [Compound 28, {4-[({[5-(3-fluorophenyl)-1H-indazol-3-yl]carbonyl}amino)methyl]piperidin-1-yl} acetic acid hydrate] as the compound, how does the IC50 read?
Its IC50 is 110 nM.

For `COc1cncc(-c2ccc3[nH]nc(C(=O)NCC4CCN(CC(=O)O)CC4)c3c2)c1` [Compound 30, {4-[({[5-(5-methoxypyridin-3-yl)-1H-indazol-3-yl]carbonyl}amino)methyl]piperidin-1-yl}acetic acid], which IC50 is on record?
The IC50 was 20 nM.

How did the IC50 turn out when `CC(C)c1ccc2[nH]nc(C(=O)NCC3CCN(CC(=O)O)CC3)c2c1` [Compound 32, {4-[({[5-(propan-2-yl)-1H-indazol-3-yl]carbonyl}amino)methyl]piperidin-1-yl} acetic acid] was run?
The IC50 was 3910 nM.

`O=C(O)CN1CCC(CNC(=O)c2n[nH]c3ccc(C4=CCOCC4)cc23)CC1` [Compound 33, {4-[({[5-(3,6-dihydro-2H-pyran-4-yl)-1H-indazol-3-yl]carbonyl}amino)methyl]piperidin-1-yl}acetic acid] was tested. Which IC50 did it give?
The IC50 was 1040 nM.

`O=C(O)CN1CCC(CNC(=O)c2n[nH]c3ccc(C4CCCCC4)cc23)CC1` [Compound 34, [4-({[(5-cyclohexyl-1H-indazol-3-yl)carbonyl]amino}methyl)piperidin-1-yl] acetic acid] was tested. Which IC50 did it give?
Its IC50 is 1070 nM.

Which IC50 does the source give for `CCCCCc1ccc2[nH]nc(C(=O)NCC3CCN(CC(=O)O)CC3)c2c1` [Compound 35, [4-({[(5-pentyl-1H-indazol-3-yl)carbonyl]amino}methyl)piperidin-1-yl] acetic acid] here?
Its IC50 is 2040 nM.

How did the IC50 turn out when `COc1ccc2[nH]nc(C(=O)NCC3CCN(CCCNC(=O)c4ccccc4)CC3)c2c1` [Compound 36, 5-methoxy-N-[(1-{3-[(phenylcarbonyl)amino]propyl}piperidin-4-yl)methyl]-1H-indazole-3-carboxamide] was run?
The IC50 was 3420 nM.

For `CCCC(=O)NCCCN1CCC(CNC(=O)c2n[nH]c3ccc(OC)cc23)CC1` [Compound 37, N-({1-[3-(butanoylamino)propyl]piperidin-4-yl}methyl)-5-methoxy-1H-indazole-3-carboxamide], which IC50 is on record?
Its IC50 is 970 nM.

For `C/C=C/C(=O)NCCCN1CCC(CNC(=O)c2n[nH]c3ccc(OC)cc23)CC1` [Compound 38, N-[(1-{3-[(2E)-but-2-enoylamino]propyl}piperidin-4-yl)methyl]-5-methoxy-1H-indazole-3-carboxamide], which IC50 is on record?
The IC50 was 780 nM.

`CCC(=O)NCCCN1CCC(CNC(=O)c2n[nH]c3ccc(OC)cc23)CC1` [Compound 39, 5-methoxy-N-({1-[3-(propanoylamino)propyl]piperidin-4-yl}methyl)-1H-indazole-3-carboxamide] was tested. Which IC50 did it give?
The IC50 was 950 nM.

How did the IC50 turn out when `CC#CC(=O)NCCCN1CCC(CNC(=O)c2n[nH]c3ccc(OC)cc23)CC1` [Compound 40, N-({1-[3-(but-2-ynoylamino)propyl]piperidin-4-yl}methyl)-5-methoxy-1H-indazole-3-carboxamide] was run?
The IC50 was 880 nM.

Source: US9611249B2, “1H-indazole-3-carboxamide compounds as glycogen synthase kinase 3 beta inhibitors” (AZIENDE CHIMICHE RIUNITE ANGELINI FRANCESCO A.C.R.A.F. …, priority 2012, dated 2017)
